Experiments:
Calu-1 cells = assay: Anti-proliferation (viability) of NSCLC Calu-1 cells, 3 days (Table 7, FIG. 2B); format: cell-based; conditions: Homo sapiens, 72 h; Calu-1 cells, 3 days, 10-point serial dilution; read-out: GI IC50 in Calu-1
In short: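 Cells were exposed to heterobifunctional compounds across a 10-point serial dilution, for 3 days with Calu-1 and 6 days with T47D. A negative control was included that keeps the DDB1 ligand and linker but carries a modified warhead that impairs CDK4 binding.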

MCF7 cells = assay: Anti-proliferation (viability) of MCF7 cells (Table 7, FIG. 2B); format: cell-based; conditions: Homo sapiens, MCF7, MCF7 cells, 3-6 days, 10-point serial dilution; read-out: GI IC50 in MCF-7

| SMILES | IC50 (Calu-1 cells) | IC50 (MCF7 cells) |
| --- | --- | --- |
| CC(=O)c1c(C)c2cnc(Nc3ccc(N4CCC5(CC4)CC5C(=O)NC4CC5(C4)CC(Nc4nc(NC(C)C)ccc4C(=O)Nc4cn(C)c(C6CC6)n4)C5)cn3)nc2n(C2CCCC2)c1=O (centres unmarked) [CPD-457, 6-(6-((6-acetyl-8-cyclopentyl-5-methyl-7-oxo-7,8-dihydropyrido[2,3-d]pyrimidin-2-yl)amino)pyridin-3-yl)-N-(6-((3-((2-cyclopropyl-1-methyl-1H-imidazol-4-yl)carbamoyl)-6-(isopropylamino)pyridin-2-yl)amino)spiro[3.3]heptan-2-yl)-6-azaspiro[2.5]octane-1-carboxamide] | ≤ 10 nM | < 50 nM |
| CC(=O)c1c(C)c2cnc(Nc3ccc(N4CCC(N5CCC(C(=O)NC6CCC(Nc7nc(NC(C)C)ccc7C(=O)Nc7ccc(N(C)C)nn7)CC6)C5)CC4)cn3)nc2n(C2CCCC2)c1=O (centres unmarked) [CPD-462, 2-((4-(1-(1-(6-((6-acetyl-8-cyclopentyl-5-menthyl-7-oxo-7,8-dihydropyrido[2,3-d]pyrimidin-2-yl)amino)pyridin-3-yl)piperidin-4-yl)pyrrolidine-3-carboxamido)cyclohexyl)amino)-N-(6-(dimethylamino)pyridazin-3-yl)-6-(isopropylamino)nicotinamide] | 10 to 50 nM | > 100 nM |
| [2H]C([2H])([2H])Nc1ccc(C(=O)Nc2ccc(N(C)C)nn2)c(NC2CCN(C(=O)CN(C)C3CCN(c4ccc(Nc5ncc6c(C)c(C(C)=O)c(=O)n(C7CCCC7)c6n5)nc4)CC3)CC2)n1 [CPD-463, 2-((1-(N-(1-(6-((6-acetyl-8-cyclopentyl-5-methyl-7-oxo-7,8-dihydropyrido[2,3-d]pyrimidin-2-yl)amino)pyridin-3-yl)piperidin-4-yl)-N-methylglycyl)piperidin-4-yl)amino)-N-(6-(dimethylamino)pyridazin-3-yl)-6-((methyl-d3)amino)nicotinamide] | ≤ 10 nM | < 50 nM |
| CC(=O)c1c(C)c2cnc(Nc3ccc(N4CCC(N(C)CC(=O)N5CCC(Nc6nc(NC(C)C)ccc6C(=O)Nc6cc(C)n(C)n6)CC5)CC4)cn3)nc2n(C2CCCC2)c1=O [CPD-465, 2-((1-(N-(1-(6-((6-acetyl-8-cyclopentyl-5-methyl-7-oxo-7,8-dihydropyrido[2,3-d]pyrimidin-2-yl)amino)pyridin-3-yl)piperidin-4-yl)-N-methylglycyl)piperidin-4-yl)amino)-N-(1,5-dimethyl-1H-pyrazol-3-yl)-6-(isopropylamino)nicotinamide] | ≤ 10 nM | < 50 nM |
| CC(=O)c1c(C)c2cnc(Nc3ccc(N4CCC(N(C)CC(=O)N5CCC(Nc6nc(NC(C)C)ccc6C(=O)Nc6cn(C)c(C7CC7)n6)CC5)CC4)cn3)nc2n(C2CCCC2)c1=O [CPD-466, 2-((1-(N-(1-(6-((6-acetyl-8-cyclopentyl-5-methyl-7-oxo-7,8-dihydropyrido[2,3-d]pyrimidin-2-yl)amino)pyridin-3-yl)piperidin-4-yl)-N-methylglycyl)piperidin-4-yl)amino)-N-(2-cyclopropyl-1-methyl-1H-imidazol-4-yl)-6-(isopropylamino)nicotinamide] | ≤ 10 nM | 50 to 100 nM |
| [2H]C([2H])([2H])Nc1ccc(C(=O)Nc2ccc(N(C)C)nn2)c(NC2CC(C(=O)N3CCC(N4CCN(c5ccc(Nc6ncc7c(C)c(C(C)=O)c(=O)n(C8CCCC8)c7n6)nc5)CC4)C3)C2)n1 (centres unmarked) [CPD-471, 2-((3-(3-(4-(6-((6-acetyl-8-cyclopentyl-5-methyl-7-oxo-7,8-dihydropyrido[2,3-d]pyrimidin-2-yl)amino)pyridin-3-yl)piperazin-1-yl)pyrrolidine-1-carbonyl)cyclobutyl)amino)-N-(6-(dimethylamino)pyridazin-3-yl)-6-((methyl-d3)amino)nicotinamide] | ≤ 10 nM | < 50 nM |
| [2H]C([2H])([2H])Nc1ccc(C(=O)Nc2ccc(N(C)C)nn2)c(NC2CCN(C(=O)CN3CCN(Cc4ccc(Nc5ncc6c(C)c(C(C)=O)c(=O)n(C7CCCC7)c6n5)nc4)CC3)CC2)n1 [CPD-474, 2-((1-(2-(4-((6-((6-acetyl-8-cyclopentyl-5-methyl-7-oxo-7,8-dihydropyrido[2,3-d]pyrimidin-2-yl)amino)pyridin-3-yl)methyl)piperazin-1-yl)acetyl)piperidin-4-yl)amino)-N-(6-(dimethylamino)pyridazin-3-yl)-6-((methyl-d3)amino)nicotinamide] | ≤ 10 nM | 50 to 100 nM |
| CC(=O)c1c(C)c2cnc(Nc3ccc(CN4CCN(CC(=O)NC5CC(Nc6nc(NC(C)C)ccc6C(=O)Nc6ccc(N(C)C)nn6)C5)CC4)cn3)nc2n(C2CCCC2)c1=O (centres unmarked) [CPD-475, 2-((3-(2-(4-((6-((6-acetyl-8-cyclopentyl-5-methyl-7-oxo-7,8-dihydropyrido[2,3-d]pyrimidin-2-yl)amino)pyridin-3-yl)methyl)piperazin-1-yl)acetamido)cyclobutyl)amino)-N-(6-(dimethylamino)pyridazin-3-yl)-6-(isopropylamino)nicotinamide] | ≤ 10 nM | > 100 nM |

Continued, values first:

| IC50 (Calu-1 cells) | IC50 (MCF7 cells) | SMILES |
| --- | --- | --- |
| ≤ 10 nM | > 100 nM | [2H]C([2H])([2H])Nc1ccc(C(=O)Nc2ccc(N(C)C)nn2)c(NC2CC3(C2)CN(C(=O)CCN2CCN(c4ccc(Nc5ncc6c(C)c(C(C)=O)c(=O)n(C7CCCC7)c6n5)nc4)CC2(C)C)C3)n1 [CPD-458, 2-((2-(3-(4-(6-((6-acetyl-8-cyclopentyl-5-methyl-7-oxo-7,8-dihydropyrido[2,3-d]pyrimidin-2-yl)amino)pyridin-3-yl)-2,2-dimethylpiperazin-1-yl)propanoyl)-2-azaspiro[3.3]heptan-6-yl)amino)-N-(6-(dimethylamino)pyridazin-3-yl)-6-((methyl-d3)amino)nicotinamide] |
| ≤ 10 nM | > 100 nM | CC(=O)c1c(C)c2cnc(Nc3ccc(N4CCN(CCC(=O)N5CC6(CC(Nc7nc(NC(C)C)ccc7C(=O)Nc7ccc(N(C)C)nn7)C6)C5)C(C)(C)C4)cn3)nc2n(C2CCCC2)c1=O [CPD-459, 2-((2-(3-(4-(6-((6-acetyl-8-cyclopentyl-5-methyl-7-oxo-7,8-dihydropyrido[2,3-d]pyrimidin-2-yl)amino)pyridin-3-yl)-2,2-dimethylpiperazin-1-yl)propanoyl)-2-azaspiro[3.3]heptan-6-yl)amino)-N-(6-(dimethylamino)pyridazin-3-yl)-6-(isopropylamino)nicotinamide] |
| ≤ 10 nM | > 100 nM | CC(=O)c1c(C)c2cnc(Nc3ccc(N4CCC(N5CCC(C(=O)NC6CC(Nc7nc(NC(C)C)ccc7C(=O)Nc7ccc(N(C)C)nn7)C6)C5)CC4)cn3)nc2n(C2CCCC2)c1=O (centres unmarked) [CPD-460, 2-((3-(1-(1-(6-((6-acetyl-8-cyclopentyl-5-methyl-7-oxo-7,8-dihydropyrido[2,3-d]pyrimidin-2-yl)amino)pyridin-3-yl)piperidin-4-yl)pyrrolidine-3-carboxamido)cyclobutyl)amino)-N-(6-(dimethylamino)pyridazin-3-yl)-6-(isopropylamino)nicotinamide] |
| ≤ 10 nM | 50 to 100 nM | CC(=O)c1c(C)c2cnc(Nc3ccc(N4CCC(N5CCC(C(=O)NCC6CC(Nc7nc(NC(C)C)ccc7C(=O)Nc7ccc(N(C)C)nn7)C6)C5)CC4)cn3)nc2n(C2CCCC2)c1=O (centres unmarked) [CPD-461, 2-((3-((1-(1-(6-((6-acetyl-8-cyclopentyl-5-methyl-7-oxo-7,8-dihydropyrido[2,3-d]pyrimidin-2-yl)amino)pyridin-3-yl)piperidin-4-yl)pyrrolidine-3-carboxamido)methyl)cyclobutyl)amino)-N-(6-(dimethylamino)pyridazin-3-yl)-6-(isopropylamino)nicotinamide] |
| ≤ 10 nM | < 50 nM | [2H]C([2H])([2H])Nc1ccc(C(=O)Nc2ccc(N(C)C)nn2)c(NC2CC3(C2)CN(C(=O)CN(C)C2CCN(c4ccc(Nc5ncc6c(C)c(C(C)=O)c(=O)n(C7CCCC7)c6n5)nc4)CC2)C3)n1 [CPD-464, 2-((2-(N-(1-(6-((6-acetyl-8-cyclopentyl-5-methyl-7-oxo-7,8-dihydropyrido[2,3-d]pyrimidin-2-yl)amino)pyridin-3-yl)piperidin-4-yl)-N-methylglycyl)-2-azaspiro[3.3]heptan-6-yl)amino)-N-(6-(dimethylamino)pyridazin-3-yl)-6-((methyl-d3)amino)nicotinamide] |
| ≤ 10 nM | > 100 nM | CC(=O)c1c(C)c2cnc(Nc3ccc(N4CC5(CN(CC(=O)NC6CC7(C6)CC(Nc6nc(NC(C)C)ccc6C(=O)Nc6ccc(N(C)C)nn6)C7)C5)C4)cn3)nc2n(C2CCCC2)c1=O (centres unmarked) [CPD-467, 2-((6-(2-(6-(6-((6-acetyl-8-cyclopentyl-5-methyl-7-oxo-7,8-dihydropyrido[2,3-d]pyrimidin-2-yl)amino)pyridin-3-yl)-2,6-diazaspiro[3.3]heptan-2-yl)acetamido)spiro[3.3]heptan-2-yl)amino)-N-(6-(dimethylamino)pyridazin-3-yl)-6-(isopropylamino)nicotinamide] |
| 10 to 50 nM | > 100 nM | CC(=O)c1c(C)c2cnc(Nc3ccc(N4CC5(CN(CC(=O)NCC6CC(Nc7nc(NC(C)C)ccc7C(=O)Nc7ccc(N(C)C)nn7)C6)C5)C4)cn3)nc2n(C2CCCC2)c1=O (centres unmarked) [CPD-468, 2-((3-((2-(6-(6-((6-acetyl-8-cyclopentyl-5-methyl-7-oxo-7,8-dihydropyrido[2,3-d]pyrimidin-2-yl)amino)pyridin-3-yl)-2,6-diazaspiro[3.3]heptan-2-yl)acetamido)methyl)cyclobutyl)amino)-N-(6-(dimethylamino)pyridazin-3-yl)-6-(isopropylamino)nicotinamide] |
| ≤ 10 nM | > 100 nM | CC(=O)c1c(C)c2cnc(Nc3ccc(N4CCN(C5CCN(C(=O)NC6CC7(C6)CC(Nc6nc(NC(C)C)ccc6C(=O)Nc6ccc(N(C)C)nn6)C7)C5)CC4)cn3)nc2n(C2CCCC2)c1=O (centres unmarked) [CPD-470, 2-((6-(3-(4-(6-((6-acetyl-8-cyclopentyl-5-methyl-7-oxo-7,8-dihydropyrido[2,3-d]pyrimidin-2-yl)amino)pyridin-3-yl)piperazin-1-yl)pyrrolidine-1-carboxamido)spiro[3.3]heptan-2-yl)amino)-N-(6-(dimethylamino)pyridazin-3-yl)-6-(isopropylamino)nicotinamide] |

— patent publication US20260297081A1, “COMPOUNDS AND METHODS OF TREATING CANCERS” (Cullgen Inc., priority 2023, published 2026)
